Data taken from publication PMC12518996 (Frontiers in Pharmacology, 2025).
pIC50: −log10 of the molar value.

Experiments:
CYP1A2 [1] = target: T1, CYP1A2 (Mus musculus, UniProt P00186); assay: Inhibition of CYP1A2 in CD1 mouse hepatocytes (phenacetin probe)
T1 sequence (P00186 1-513): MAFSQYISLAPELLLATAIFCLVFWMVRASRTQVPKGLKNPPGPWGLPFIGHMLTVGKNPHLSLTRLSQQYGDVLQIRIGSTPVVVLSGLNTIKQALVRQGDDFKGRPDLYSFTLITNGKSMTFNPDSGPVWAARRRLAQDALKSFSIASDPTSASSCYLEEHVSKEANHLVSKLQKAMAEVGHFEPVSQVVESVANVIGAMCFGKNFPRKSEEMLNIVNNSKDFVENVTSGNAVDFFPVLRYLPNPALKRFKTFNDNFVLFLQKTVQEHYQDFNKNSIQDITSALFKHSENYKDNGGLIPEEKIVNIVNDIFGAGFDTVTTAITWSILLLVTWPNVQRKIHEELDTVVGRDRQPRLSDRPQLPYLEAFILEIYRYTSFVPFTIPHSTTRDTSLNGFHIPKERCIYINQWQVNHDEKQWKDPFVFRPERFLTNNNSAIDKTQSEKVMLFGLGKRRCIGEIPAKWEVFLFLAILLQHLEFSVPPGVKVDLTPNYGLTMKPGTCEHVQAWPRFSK

CYP2E1 [2] = target: CYP2E1 (Homo sapiens, UniProt P05181); assay: biochemical
CYP2E1 (Homo sapiens, UniProt P05181), sequence (P05181 whole entry): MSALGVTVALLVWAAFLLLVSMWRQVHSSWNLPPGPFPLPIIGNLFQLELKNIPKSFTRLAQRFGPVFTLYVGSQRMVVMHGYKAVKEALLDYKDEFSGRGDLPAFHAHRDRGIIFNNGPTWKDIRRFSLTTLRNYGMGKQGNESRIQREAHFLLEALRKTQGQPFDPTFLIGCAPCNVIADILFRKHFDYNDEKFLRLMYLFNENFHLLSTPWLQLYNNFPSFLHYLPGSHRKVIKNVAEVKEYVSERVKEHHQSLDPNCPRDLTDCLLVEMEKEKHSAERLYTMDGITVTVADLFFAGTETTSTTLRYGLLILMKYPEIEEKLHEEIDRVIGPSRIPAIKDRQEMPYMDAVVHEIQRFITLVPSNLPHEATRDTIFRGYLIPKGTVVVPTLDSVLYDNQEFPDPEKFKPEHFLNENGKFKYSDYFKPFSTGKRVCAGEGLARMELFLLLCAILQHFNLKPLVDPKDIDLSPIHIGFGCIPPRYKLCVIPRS

CYP3A4 = CYP3A4 (Homo sapiens, UniProt P08684); settings: human hepatocytes; probe midazolam; 0.1-100 μM
CYP3A4, sequence (P08684 whole entry): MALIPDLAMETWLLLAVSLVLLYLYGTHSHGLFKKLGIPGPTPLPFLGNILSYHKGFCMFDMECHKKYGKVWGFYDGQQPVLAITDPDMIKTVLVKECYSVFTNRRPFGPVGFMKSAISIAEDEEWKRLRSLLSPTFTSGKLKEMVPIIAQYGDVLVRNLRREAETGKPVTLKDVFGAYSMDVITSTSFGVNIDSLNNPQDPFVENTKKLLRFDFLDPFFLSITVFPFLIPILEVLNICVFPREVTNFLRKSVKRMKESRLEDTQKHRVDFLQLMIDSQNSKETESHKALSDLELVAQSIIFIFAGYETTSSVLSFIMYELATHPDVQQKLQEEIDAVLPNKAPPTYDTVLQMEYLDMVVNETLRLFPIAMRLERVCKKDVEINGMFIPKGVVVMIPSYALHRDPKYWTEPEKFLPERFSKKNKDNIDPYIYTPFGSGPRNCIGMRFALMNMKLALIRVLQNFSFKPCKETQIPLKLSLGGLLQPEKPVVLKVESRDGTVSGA

CYP1A2 [3] = target: T2, CYP1A2 (Homo sapiens, UniProt P05177); settings: human hepatocytes; probe phenacetin; 0.1-100 μM
T2 sequence (P05177 1-516): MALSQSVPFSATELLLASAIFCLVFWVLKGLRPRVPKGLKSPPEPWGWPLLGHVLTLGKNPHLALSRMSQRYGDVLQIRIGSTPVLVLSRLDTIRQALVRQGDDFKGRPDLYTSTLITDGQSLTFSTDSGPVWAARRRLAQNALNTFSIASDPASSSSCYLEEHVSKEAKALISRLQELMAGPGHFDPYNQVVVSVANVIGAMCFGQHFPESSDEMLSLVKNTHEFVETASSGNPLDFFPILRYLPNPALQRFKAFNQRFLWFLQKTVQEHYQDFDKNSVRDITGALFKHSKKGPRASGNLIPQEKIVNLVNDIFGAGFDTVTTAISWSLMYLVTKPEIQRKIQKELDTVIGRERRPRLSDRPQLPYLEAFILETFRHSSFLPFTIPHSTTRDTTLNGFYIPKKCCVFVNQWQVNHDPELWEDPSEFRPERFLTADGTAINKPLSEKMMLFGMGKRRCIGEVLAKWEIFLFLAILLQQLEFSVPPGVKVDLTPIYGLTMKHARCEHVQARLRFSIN

CYP1A2 [4] = target: CYP1A2 (Rattus norvegicus, UniProt P04799); assay: Metabolite formation by recombinant rat CYP1A2; type: in vitro ADME; settings: trazodone 4 μM; NADPH; 37 °C, 40 min
CYP1A2 (Rattus norvegicus, UniProt P04799), sequence (P04799 whole entry, canonical isoform): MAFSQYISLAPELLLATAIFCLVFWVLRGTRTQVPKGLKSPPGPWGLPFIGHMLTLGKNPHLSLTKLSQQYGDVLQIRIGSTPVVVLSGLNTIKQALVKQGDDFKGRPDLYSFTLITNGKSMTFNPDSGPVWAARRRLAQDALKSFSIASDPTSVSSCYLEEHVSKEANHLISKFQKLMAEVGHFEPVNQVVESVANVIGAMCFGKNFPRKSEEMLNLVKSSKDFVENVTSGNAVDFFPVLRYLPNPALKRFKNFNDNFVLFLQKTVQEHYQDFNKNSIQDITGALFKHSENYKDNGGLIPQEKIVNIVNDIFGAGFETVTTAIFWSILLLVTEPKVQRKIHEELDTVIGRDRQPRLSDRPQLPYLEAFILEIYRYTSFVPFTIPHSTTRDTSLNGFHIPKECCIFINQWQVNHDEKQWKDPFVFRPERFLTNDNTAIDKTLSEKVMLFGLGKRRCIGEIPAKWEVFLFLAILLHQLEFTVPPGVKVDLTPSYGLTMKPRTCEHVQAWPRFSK
Protocol: To confirm the role of individual CYP isoforms in metabolizing trazodone, recombinant human and rat CYP enzymes were employed in separate incubations. […] Each reaction was terminated with acetonitrile, centrifuged, and the supernatant was analyzed by identical UHPLC-Orbitrap setup outlined in §2.2, allowing direct comparison of metabolite spectra across all in-vitro systems. […] This procedure helped confirm the contributions of individual isoforms to specific biotransformation reactions.

CYP2E1 [5] = target: CYP2E1 (Mus musculus, UniProt Q05421); assay: biochemical
CYP2E1 (Mus musculus, UniProt Q05421), sequence (Q05421 whole entry): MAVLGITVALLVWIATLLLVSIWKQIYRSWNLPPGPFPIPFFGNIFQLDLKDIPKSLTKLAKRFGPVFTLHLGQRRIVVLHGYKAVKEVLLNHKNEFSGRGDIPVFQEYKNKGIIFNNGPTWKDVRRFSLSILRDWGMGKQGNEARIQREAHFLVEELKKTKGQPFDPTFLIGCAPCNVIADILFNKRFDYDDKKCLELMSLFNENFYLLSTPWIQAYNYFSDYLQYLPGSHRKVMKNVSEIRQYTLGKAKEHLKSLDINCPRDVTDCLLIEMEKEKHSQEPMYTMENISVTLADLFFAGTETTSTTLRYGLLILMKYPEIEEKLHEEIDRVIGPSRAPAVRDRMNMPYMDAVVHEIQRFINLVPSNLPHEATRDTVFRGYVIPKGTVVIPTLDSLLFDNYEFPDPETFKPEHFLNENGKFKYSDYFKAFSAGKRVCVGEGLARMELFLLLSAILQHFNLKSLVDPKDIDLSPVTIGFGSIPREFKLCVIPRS

CYP1A2 [6] = target: T2, CYP1A2; assay: biochemical
CYP2A6 = target: T3, CYP2A6 (Mus musculus, UniProt P20852); assay: biochemical
T3 sequence (P20852 1-494): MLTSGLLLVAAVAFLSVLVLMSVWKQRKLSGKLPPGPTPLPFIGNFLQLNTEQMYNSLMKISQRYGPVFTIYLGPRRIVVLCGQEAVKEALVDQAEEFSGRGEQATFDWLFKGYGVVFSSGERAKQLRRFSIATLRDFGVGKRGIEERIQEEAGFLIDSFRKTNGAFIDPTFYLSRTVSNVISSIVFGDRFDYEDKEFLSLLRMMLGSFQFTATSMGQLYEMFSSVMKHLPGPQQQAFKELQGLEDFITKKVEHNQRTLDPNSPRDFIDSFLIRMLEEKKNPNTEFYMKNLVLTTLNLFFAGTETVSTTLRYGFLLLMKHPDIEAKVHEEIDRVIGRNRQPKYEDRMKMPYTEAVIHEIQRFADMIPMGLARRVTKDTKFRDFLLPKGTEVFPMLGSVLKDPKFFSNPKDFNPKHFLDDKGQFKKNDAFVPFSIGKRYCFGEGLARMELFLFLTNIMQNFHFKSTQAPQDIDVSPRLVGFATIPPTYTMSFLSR

[7] = Metabolic profiling in rat plasma after oral trazodone; type: in vivo
Protocol: Following incubation, all reactions were terminated by adding an equal volume of cold acetonitrile to precipitate proteins. Samples were then centrifuged at 13,000 x g for 10 min, and the supernatants were transferred to 96-well plates for analysis.
Processed supernatants (4 µL) were injected onto a Thermo U3000 UHPLC system coupled to a Thermo Q-Exactive Orbitrap MS equipped with a PDA detector. […] The Orbitrap operated in positive ESI mode (sheath/aux/sweep N2 55/8/4 units; capillary 3.0 kV, 370 °C; auxiliary heater 550 °C) with full-scan m/z 100–1,000 at 35,000 FWHM (m/z 200) and DDI-MS/MS at 17,500 FWHM (7 Hz acquisition; IT […]; HCD 40 eV). External mass calibration and a 5 ppm extraction window were applied, and data were processed in Xcalibur 3.0.63/Compound Discoverer 1.0.

Row | Structure (SMILES) | pIC50 (CYP1A2 [1]) | pIC50 (CYP2E1 [2]) | IC50 value (µM), CYP3A4 (CYP3A4) | IC50 value (µM), CYP1A2 (CYP1A2 [3]) | Formation of trazodone phase I metabolite by recombinant rat CYP1A2 (as LC/MS peak areas) (CYP1A2 [4]) | pIC50 (CYP2E1 [5]) | pIC50 (CYP1A2 [6]) | pIC50 (CYP2A6) | relative abundance (% of total LC-MS signal), Rat plasma 0.25h (%) ([7]; rat plasma 0.25 h after oral trazodone 30 mg/kg) | relative abundance (% of total LC-MS signal), Rat plasma 6h (%) ([7]; rat plasma 6 h after oral trazodone 30 mg/kg)
1 | Clc1cccc(N2CCNCC2)c1 [mCPP, m-chlorophenylpiperazine] | < 4.00 | 5.19 | inactive | inactive | 2151 | 5.73 | < 4.00 | < 4.00 |  | 
2 | O=c1n(CCCN2CCNCC2)nc2ccccn12 [Metabolite M15] |  |  |  |  |  |  |  |  | 0.1 | 0.1
